Results reported in US20240174651A1, “COMPOUNDS AND USE THEREOF FOR TREATMENT OF NEURODEGENERATIVE, DEGENERATIVE AND METABOLIC DISORDERS” (THE SCRIPPS RESEARCH INSTITUTE, priority 2021, published 2024).
Where “and” joins values, the source holds several entries; their conditions need not be identical. Identical values can stand only once. Like-named read-outs stand apart in the source and are kept apart here.

System: PK1 neuroblastoma cells exposed to TPrP
Assay: cells
Assay type: cell-based
Settings: read-out: TPrP EC50

CC(=O)c1cccc(Nc2nnc(Cc3cc(C)nc(C)c3)c3ccccc23)c1 [SR-32064]
EC50 (PK-1, 96 h): > 400 nM

c1ccc2oc(CNc3nnc(Cc4ccncc4)c4ccccc34)nc2c1 [SR-27888]
EC50 (PK-1, 96 h): 45 nM

C/C(=N\O)c1cccc(Nc2nnc(Cc3ccncc3)c3ccccc23)c1 [SR-30013]
EC50 (PK-1, 96 h): 2 nM

CC(=O)c1cccc(Nc2nnc(Cc3ccncc3C(F)(F)F)c3ccccc23)c1 [SR-33876]
EC50 (PK-1, 96 h): > 500 nM

c1ccc2cc3oc(Nc4nnc(Cc5ccncc5)c5ccccc45)nc3cc2c1 [SR-32073]
EC50 (PK-1, 96 h): 250 nM

Cc1cccc2nc(Nc3nnc(Cc4ccncc4)c4ccccc34)oc12 [SR-32075]
EC50 (PK-1, 96 h): > 400 nM

O=S(=O)(c1cccc(Nc2nnc(Cc3ccncc3)c3ccccc23)c1)N1C2CCC1COC2 [SR-35427]
EC50 (PK-1, 96 h): 7 nM

Cc1cc(C(C)c2nnc(NCc3ccco3)c3ccccc23)ccn1 (centres unmarked) [SR-35433]
EC50 (PK-1, 96 h): > 900 nM

Clc1ccc(Nc2nnc(Cc3ccncc3)c3ccccc23)cc1 [vatalanib, reference compound]
EC50 (PK-1, 96 h): 60 nM

COc1ccc2oc(Nc3nnc(Cc4ccncc4)c4ccccc34)nc2c1 [SR-32076]
EC50 (PK-1, 96 h): 20 nM

c1cc(Nc2nnc(Cc3ccncc3)c3ccccc23)cc(C2COC2)c1 [SR-35426]
EC50 (PK-1, 96 h): 10 nM

c1ccc2c(NCC3CCCO3)nnc(Cc3ccncc3)c2c1 (centres unmarked) [SR-30004]
EC50 (PK-1, 96 h): 150 nM

COc1ccc(CNc2nnc(Cc3ccncc3)c3ccccc23)cc1OC [SR-27886]
EC50 (PK-1, 96 h): 150 nM

CC(=C(F)F)c1cccc(Nc2nnc(Cc3ccncc3)c3ccccc23)c1 [SR-31144]
EC50 (PK-1, 96 h): > 400 nM

Cc1cc(C(C)c2nnc(NCC3CCOCC3)c3ccccc23)ccn1 (centres unmarked) [SR-35429, 4-(1-(2-methylpyridin-4-yl)ethyl)-N-((tetrahydro-2H-pyran-4-yl)methyl)phthalazin-1-amine]
EC50 (PK-1, 96 h): 26 nM

O=[N+]([O-])c1cccc2oc(Nc3nnc(Cc4ccncc4)c4ccccc34)nc12 [SR-32069]
EC50 (PK-1, 96 h): 8 nM

COc1cc(Cc2nnc(Nc3cccc(C(C)=O)c3)c3ccccc23)ccn1 [SR-33874]
EC50 (PK-1, 96 h): > 500 nM

Fc1ccc2nc(Nc3nnc(Cc4ccncc4)c4ccccc34)oc2c1 [SR-32071]
EC50 (PK-1, 96 h): 90 nM

Fc1cccc2nc(Nc3nnc(Cc4ccncc4)c4ccccc34)oc12 [SR-32074]
EC50 (PK-1, 96 h): 30 nM

c1ccc2c(c1)CC(CNc1nnc(Cc3ccncc3)c3ccccc13)CO2 (centres unmarked) [SR-27890]
EC50 (PK-1, 96 h): 165 nM

c1ccc2[nH]c(CNc3nnc(Cc4ccncc4)c4ccccc34)nc2c1 [SR-27887]
EC50 (PK-1, 96 h): 220 nM

c1ccc(OCCNc2nnc(Cc3ccncc3)c3ccccc23)cc1 [SR-27892]
EC50 (PK-1, 96 h): 500 nM

c1ccc2oc(CNc3nnc(Cc4ccncc4)c4ccccc34)cc2c1 [SR-30011]
EC50 (PK-1, 96 h): 2 nM

Cc1cccc2oc(Nc3nnc(Cc4ccncc4)c4ccccc34)nc12 [SR-32072]
EC50 (PK-1, 96 h): 30 nM

c1ccc2c(NCC3CCCCO3)nnc(Cc3ccncc3)c2c1 (centres unmarked) [SR-30007]
EC50 (PK-1, 96 h): 60 nM

O=S(=O)(c1ccc(Nc2nnc(Cc3ccncc3)c3ccccc23)cc1)N1CCOCC1 [SR-35425]
EC50 (PK-1, 96 h): 5 nM

Cc1cc(Cc2nnc(Nc3nc4ccccc4o3)c3ccccc23)ccn1 [SR-33872]
EC50 (PK-1, 96 h): > 500 nM

CC(=O)c1cccc(Nc2nnc(C(c3ccncc3)C(F)(F)F)c3ccccc23)c1 (centres unmarked) [SR-34646]
EC50 (PK-1, 96 h): > 500 nM

O=S(=O)(c1cccc(Nc2nnc(Cc3ccncc3)c3ccccc23)c1)N1CC2CCC(C1)O2 [SR-35428]
EC50 (PK-1, 96 h): 6 nM

c1ccc2c(c1)CC(Nc1nnc(Cc3ccncc3)c3ccccc13)C2 [SR-27885]
EC50 (PK-1, 96 h): 200 nM

CC(c1ccncc1)c1nnc(NCc2cc3ccccc3o2)c2ccccc12 (centres unmarked) [SR-34645]
EC50 (PK-1, 96 h): ~500 nM

O=[N+]([O-])c1ccc2oc(Nc3nnc(Cc4ccncc4)c4ccccc34)nc2c1 [SR-32068]
EC50 (PK-1, 96 h): 20 nM

c1ccc2c(c1)CC(Nc1nnc(Cc3ccncc3)c3ccccc13)CO2 (centres unmarked) [SR-27889]
EC50 (PK-1, 96 h): 285 nM

Fc1cccc2oc(Nc3nnc(Cc4ccncc4)c4ccccc34)nc12 [SR-32070]
EC50 (PK-1, 96 h): 20 nM

Fc1ccc2oc(Nc3nnc(Cc4ccncc4)c4ccccc34)nc2c1 [SR-32067]
EC50 (PK-1, 96 h): 20 nM

CC(=O)c1cccc(Nc2nnc(Cc3ccnc(C)c3)c3ccccc23)c1 [SR-33871]
EC50 (PK-1, 96 h): 70 nM

c1ccc2[nH]c(CNc3nnc(Cc4ccncc4)c4ccccc34)cc2c1 [SR-30006]
EC50 (PK-1, 96 h): 50 nM

c1ccc2oc(Nc3nnc(Cc4ccncc4)c4ccccc34)nc2c1 [SR-30010]
EC50 (PK-1, 96 h): 2 nM

Cc1cc(C(C)c2nnc(NCC3COc4ccccc4C3)c3ccccc23)ccn1 (centres unmarked) [SR-35432]
EC50 (PK-1, 96 h): > 900 nM

CO/N=C(\C)c1cccc(Nc2nnc(Cc3ccncc3)c3ccccc23)c1 [SR-30014]
EC50 (PK-1, 96 h): 2 nM

CC(=O)c1cccc(Nc2nnc(C(C)c3ccncc3)c3ccccc23)c1 (centres unmarked) [SR-34644]
EC50 (PK-1, 96 h): 45 nM

c1ccc2c(c1)ccc1oc(Nc3nnc(Cc4ccncc4)c4ccccc34)nc12 [SR-32077]
EC50 (PK-1, 96 h): 135 nM

c1coc(CNc2nnc(Cc3ccncc3)c3ccccc23)c1 [SR-30005]
EC50 (PK-1, 96 h): 140 nM

c1ccc2c(NCC3CCOCC3)nnc(Cc3ccncc3)c2c1 [SR-30008]
EC50 (PK-1, 96 h): 15 nM

Cc1cc(Cc2nnc(Nc3nc4ccccc4o3)c3ccccc23)cc(C)n1 [SR-32065]
EC50 (PK-1, 96 h): > 400 nM

Cc1ccc2nc(Nc3nnc(Cc4ccncc4)c4ccccc34)oc2c1 [SR-32066]
EC50 (PK-1, 96 h): 50 nM

CC(=O)c1cccc(Nc2nnc(Cc3ccncc3)c3ccccc23)c1 [SR005]
EC50 (PK-1, 96 h): 15 nM
EC50: 20 nM and 25 nM

CC(O)c1cccc(Nc2nnc(Cc3ccncc3)c3ccccc23)c1 (centres unmarked) [SR-29684]
EC50 (PK-1, 96 h): 2 nM

Cc1cc(C(C)c2nnc(Nc3cccc(C4COC4)c3)c3ccccc23)ccn1 (centres unmarked) [SR-35431]
EC50 (PK-1, 96 h): > 900 nM

CC(=O)c1cccc(Nc2nnc(Cc3ccnc(C(F)(F)F)c3)c3ccccc23)c1 [SR-33873]
EC50 (PK-1, 96 h): > 500 nM

COc1cc(Cc2nnc(NCc3cc4ccccc4o3)c3ccccc23)ccn1 [SR-33875]
EC50 (PK-1, 96 h): > 500 nM

Cc1cc(C(C)c2nnc(NC3CCc4ccccc43)c3ccccc23)ccn1 (centres unmarked) [SR-35430]
EC50 (PK-1, 96 h): > 900 nM

CC1(c2cccc(Nc3nnc(Cc4ccncc4)c4ccccc34)c2)OCCO1 [SR-30012]
EC50 (PK-1, 96 h): 2 nM

c1ccc2c(c1)CCC2Nc1nnc(Cc2ccncc2)c2ccccc12 (centres unmarked) [SR-27884]
EC50 (PK-1, 96 h): 500 nM

O=S(=O)(c1cccc(Nc2nnc(Cc3ccncc3)c3ccccc23)c1)N1CCOCC1 [SR-35424]
EC50 (PK-1, 96 h): 9 nM
